For assay [1], the system named is human neutrophils (azurophilic granule marker CD63). The assay is described as follows: Flow cytometry of azurophilic granule mobilization (CD63) in human neutrophils. It is filed as cell-based. The following applies: Homo sapiens, Neutrophil, 1 hour, GM-CSF + fMLP, N=15 donors, FIG. 4, read-out: Mean % inhibition of CD63 up-regulation. From the text:
(§1) Human neutrophils were isolated from normal donor's blood by Ficoll density centrifugation, as described previously (23). Murine bone marrow-derived neutrophils were isolated using a Percoll gradient fractionation system as described (24). A three-layer Percoll gradient was used (52%, 64%, and 72%), and neutrophils were isolated from the 64-72% interface, washed, and used in the assays.
(§2) Method: The up-regulation of granule membrane-associated neutrophil markers at the plasma membrane was analyzed by flow cytometry. In these studies, flow cytometry analysis was performed by resuspension of 1×10^6 human neutrophils in phenol red-free RPMI 1640 medium, treated with a 10 μM solution of Inhibitors C1, C2, C4, C5, and C6 and Nexinhib 20 (C20) or DMSO control for 1 hour, and stimulated with physiological agonists GM-CSF (10 ng/ml) for 30 min followed by the addition of fMLP (1 μM) to induce degranulation or left untreated at 37 °C (non-stimulated, NS). The reactions were stopped by transferring the samples to ice and immediately spinning down the cells to initiate blocking and staining. To analyze the plasma membrane expression of plasma membrane markers, the cells were blocked in ice-cold PBS containing 1% BSA and stained with phycoerythrin (PE)-, FITC-, or Alexa647-conjugated anti-human CD63, CD66b, MMP9, and CD11b antibodies that detect extracellular epitopes of these markers. The cells were then washed and fixed in 1% paraformaldehyde in PBS. Samples were analyzed using a NovoCyte flow cytometer, and the data were processed using FlowJo software.
(In general: A flow cytometer gives signals particle by particle.)

The subject of assay [2] is neutrophils that carry the NLRP3 A350V mutation. The assay is described as follows: Secretion by bone-marrow-derived neutrophils from Nlrp3 A350V (CAPS) mice. It counts as cell-based, mouse. Particulars: 10 μM, 1 hour, LPS and fMLF. The source says: FIG. 8A-C. […] A, gelatinase (MMP9) granules; B, azurophilic granules (MPO, myeloperoxidase); C, CD63 (an endolysosomal marker). […] Subsequently, neutrophils were either stimulated with lipopolisacharide (LPS) and the chemotatctic peptide fMLF or left untreated. C20 (Nexinhib20 is used as control). Mean±SEM, n=3. In this and subsequent figures, p<0.05; **, p<0.01; ***, p<0.001; ****, p<0.0001, ANOVA.
These compounds are now tested using neutrophils from a mouse model of Cryopyrin-Associated Periodic Syndrome (CAPS), a systemic inflammatory disease in humans, caused by gain-of-function mutations of the NOD-like receptor family member, cryopirin, also known as NLRP3 (J Cin Immunol 39, 277-286, doi:10.1007/s10875-019-00638-z (2019)). Heterozygous NLRP3 mutations lead to hyper-responsive NLRP3 inflammasome function characterized by increased caspase-1 (Casp1) activation and […], and is observed in patients and in animal models with NLRP3-gain-of-function mutations. […] Subsequently, neutrophils were either stimulated with LPS and the chemotatctic peptide fMLF or left untreated.

Assay [3] concerns human neutrophils (Gelatinase granule cargo MMP9). Description: Flow cytometry of gelatinase granule exocytosis (MMP9) in human neutrophils. It counts as cell-based. The following applies: 1 hour, GM-CSF + fMLP.
Source text: as §1, §2

Assay [4] has as its system human neutrophils (secretory vesicle marker CD11b). The assay is described as follows: Flow cytometry of secretory vesicle mobilization (CD11b) in human neutrophils. It is filed as cell-based. Particulars: 10 μM, 1 hour; GM-CSF + fMLP; relative to DMSO; N=15 donors; FIG. 7.
Source text: as §1, §2

For assay [5], the system named is human neutrophils (specific granule marker CD66b). Description: Flow cytometry of specific granule exocytosis (CD66b) in human neutrophils. It counts as cell-based. Particulars: 1 hour, GM-CSF + fMLP.
Source text: as §1, §2

For assay [6], the system named is LPS-challenged mice. Description: LPS-induced systemic inflammation (endotoxemia/sepsis), plasma cytokines. It is filed as in vivo, mouse. The following applies: for IL-10 levels: FIG. 10B. On the procedure: FIG. 10A-B. Treatment with compound NEIa-C6 inhibits pro-inflammatory cytokine production in a model of sepsis. We tested the ability of C6 to protect mice from LPS-induced systemic inflammation. In these experiments, mice (n=4 independent mice per group) receive NEIa-C6 (30 mg/Kg) or vehicle by a single i.p. injection and two hours later, the animals are challenged with a single i.p. injection of lipopolysaccharide (LPS, 8 mg/Kg) or PBS (vehicle for LPS). Four hours after LPS/PBS insult, blood is collected and cytokines are analyzed in plasma using multiplex technology.
To test whether Nexinhibs, and in particular NEIa-C6, have additional protective properties in inflammation models relevant to human disease, independent of inflammasome activation, we tested the ability of C6 to protect mice from LPS-induced systemic inflammation. In these experiments, mice received NEIa-C6 (30 mg/Kg) or vehicle by a single i.p. injection and two hours later, the animals are challenged with a single i.p. injection of lipopolysaccharide (LPS, 8 mg/Kg), an important outer membrane component of gram-negative bacteria. In this model, endotoxemia insult induces the production of pro-inflammatory cytokines. To test the possible anti-inflammatory effect of NEIa-C6, we comparatively analyzed cytokine levels in plasma of LPS-insulted and control mice using multiplex technology.

Assay [7] has as its system wild-type neutrophils. Description: Secretion by wild-type neutrophils. It is filed as cell-based.
[8] abbreviates: 30 mg/Kg i.p., LPS 8 mg/Kg, plasma, FIG. 10A.

The source of these data is patent publication US20260355189A1, “SMALL MOLECULE INHIBITORS OF NEUTROPHIL EXOCYTOSIS AND INFLAMMATION” (THE SCRIPPS RESEARCH INSTITUTE, priority 2022, published 2026).

By inhibition is commonly meant how much of the control response was suppressed. In the case of `CCN(CC)CCNC(=O)/C(=C/c1cccc([N+](=O)[O-])c1)n1cncn1` [154 (C6)], in assay [1], the inhibition at 10 µM was 58.1%. Further, in assay [2] (FIG. 8), the “Mobilization of azurophilic granules (MPO)” value is reported as “inhibit the mobilization” and the “Mobilization of gelatinase granules (MMP9)” value is “inhibit the mobilization of gelatinase granules (MMP9)”. For the same molecule, in assay [2] (Nlrp3 A350V and wild type, FIG. 8A-C), the “Neutrophil secretion (hyperactivation of secretion)” value was “inhibit the hyperactivation of secretion”. The “Mobilization of CD63” value in assay [2] (murine neutrophils, FIG. 8) was “significantly inhibited the mobilization of CD63”. In addition, in assay [3] (10 μM, relative to DMSO, FIG. 6), the “Inhibition in MMP9 experiment (words; printed as CD66b up-regulation)” value is “marked inhibition of CD66b up-regulation”. Further, the inhibition at 10 µM in assay [3] (Homo sapiens, Neutrophil, N=12 donors, FIG. 6, read-out: % Inhibition of MMP9 up-regulation) turned out to be 54.4%. The “Release of CD11b+ vesicles / CD11b upregulation” value in assay [4] is “unaffected”. In assay [5] (10 μM, relative to DMSO, FIG. 5), the “Inhibition of CD66b up-regulation” value is given as “reduced the up-regulation of CD66b”. In addition, the inhibition at 10 µM in assay [5] (Homo sapiens, Neutrophil, N=12 donors, FIG. 5, read-out: % inhibition of CD66b up-regulation) was 42.3%. In assay [6] (30 mg/Kg i.p. 2 h before LPS 8 mg/Kg, plasma 4 h after LPS, FIG. 10A), the “Production of pro-inflammatory cytokines” value is listed as “inhibit the production of the indicated pro-inflammatory cytokines”. Moreover, in assay [6] (setting [8]), the GM-CSF production entry is “significantly decreases”, the IL-1β production entry is reported as “significantly decreases”, the IL-17 levels result is “decreased” and the MIP-2 levels result is on record as “decreased”. Also, the TL-3 levels entry in assay [6] (setting [8]) is given as “decreases”. Besides, in assay [6] (30 mg/Kg i.p., LPS 8 mg/Kg, plasma, listed as C6), the IL-10 levels entry is given as “increases the production of IL-10”. Also, the IL-10 levels result in assay [6] (30 mg/Kg i.p., LPS 8 mg/Kg, plasma, listed as NEIa-C6) is on record as “increased the levels of IL-10”. In addition, in assay [7], the “Inhibitory effect on wild-type neutrophils” value is listed as “selective inhibitory effect on wild-type neutrophils”.
